How the values were obtained:
red potatoes [1] = experiment: wounding combined with precursor exposure: N-trans-feruloyltyramine production in sliced red potatoes; parameters: species or system Solanum tuberosum; conditions: sliced red potatoes dipped in 400 μM tyramine or citric acid (pH ~4); for N-trans-feruloyltyramine production: 4 days at room temperature, water control
Procedure: Red potatoes were sliced (i.e., and boiled in water for 6 minutes or dipped into abiotic […]) aqueous solutions of 400 μM tyramine or citric acid (pH ˜4).
For this analysis, red potatoes were sliced to a standard thickness (¼ inch; two potatoes/time point). Subsequently, the potato slices were either boiled in water for 6 minutes, or dipped into aqueous solutions of 400 μM tyramine (as precursor) or citric acid (pH ˜4; as a preservative), or water (control). The potato slices were loosely covered to allow for air flow and incubated for 4 days at room temperature.

Solanum tuberosum = experiment: wounding response of potato tubers (N-trans-feruloyltyramine production); conditions: wounded potatoes
Procedure: Thus, it was determined whether elevated levels tyramine containing hydroxycinnamic acid amides could be generated in situ by subjecting a plant to an abiotic stress, e.g., wounding. In particular, yellow tubers of Solanum tuberosum were wounded by wounding and production of N-trans-feruloyltyramine in the tuber was assessed 1, 5 and 9 days after wounding.

red potatoes [2] = experiment: wounding combined with THT enzyme elicitors: N-trans-feruloyltyramine production in sliced red potatoes; parameters: species or system Solanum tuberosum; conditions: sliced red potatoes dipped in 1 mg/ml laminaran, 10 mg/ml inactivated cordy-gen fungi or 10 mg/ml live endomycorrhizal fungi; 4 or 8 days at room temperature; water control
Procedure: Red potatoes were sliced (i.e., wounded) and dipped into aqueous solutions of 10 mg/ml live endomycorrhizal fungi, 10 mg/ml inactivated cordy-gen fungi, or 1 mg/ml laminaran (polysaccharide from brown algae).
For this analysis, red potatoes were sliced to a standard thickness. Subsequently, the potato slices were dipped into solutions of 10 mg/ml live endomycorrhizal fungi, 10 mg/ml inactivated cordy-gen fungi (from Mycopia), 1 mg/ml laminaran (polysaccharide from brown algae) or water (control) The potato slices were loosely covered to allow for air flow and incubated for 4 or 8 days at room temperature.

production of N-trans-feruloyltyramine in response to wounding (red potatoes [2])	Compound	browning of the wounded potato slices (red potatoes [1])	N-trans-feruloyltyramine production (red potatoes [1])	effect on the wounding response (Solanum tuberosum)
–	O=C(O)CC(O)(CC(=O)O)C(=O)O [citric acid]	inhibited the browning pathway	little effect	–
–	NCCc1ccc(O)cc1 [tyramine]	further increased browning	could enhance	enhanced the wounding response
substantially enhanced	laminaran	–	–	–

Source: patent publication US11647776B2, “Extract, consumable product and method for enriching bioactive metabolite in an extract” (Brightseed, Inc., priority 2019, dated 2023)
